Measurements: patent publication US20130156832A1, “EUDERMIC COMPOSITIONS” (Miso S.r.I., priority 2010, published 2013)

Assay: Saturation concentration (solubility) of salicylic acid in vehicle A (water)
Assay type: physicochemical

Which “saturation concentration (Cs, SA-A)” value does the source give for `O=C(O)c1ccccc1O` [salicylic acid] here?
The value was 2 mg/mL.
